Reference: patent publication US8765173B2, “Drug delivery system for administration of a water soluble, cationic and amphiphilic pharmaceutically active substance” (Ardenia Investments, Ltd., priority 2007, dated 2014)
≈ marks a conversion by molar mass, not a printed value. Structures can show the parent of a compound that is named as a salt.

Columns and labels:
[1] = stated in Example 1 without method; cited from earlier work
[2] = Solubility in water by UV method; settings: thermodynamic from solid
[3] = physchem; settings: water, thermodynamic from solid

SMILES	solubility [3]	also measured
COc1cccc2c1C(=O)c1c(O)c3c(c(O)c1C2=O)C[C@@](O)(C(=O)CO)C[C@@H]3O[C@H]1C[C@H](N)[C@H](O)[C@H](C)O1 [doxorubicin hydrochloride]	–	soluble in water in an amount of [1]: more than 25 mg/ml
COc1cccc2c1C(=O)c1c(O)c3c(c(O)c1C2=O)C[C@@](O)(C(=O)CO)C[C@@H]3O[C@H]1C[C@H](N)[C@H](O)[C@H](C)O1 [doxorubicin in amine form, doxorubicin]	–	solubility [2]: 15 µg/mL (≈ 27.6 µM)
O=C1c2c(O)ccc(O)c2C(=O)c2c(NCCNCCO)ccc(NCCNCCO)c21 [mitoxantrone in amine form, mitoxantrone]	30 µg/mL (≈ 67.5 µM)	–
CC[C@@]1(O)C(=O)OCc2c1cc1n(c2=O)Cc2cc3c(CN(C)C)c(O)ccc3nc2-1 [topotecan in amine form, topotecan]	90 µg/mL (≈ 214 µM)	–
